Data: publication PMC9199881 (Clinical and Translational Science, 2022)

Key:
[1] = Plasma pharmacokinetics, Part A; format: in vivo, human; conditions: for Cmax / Tmax / half-life: human, plasma, oral, rilzabrutinib 100 mg + ritonavir 100 mg b.i.d., rilzabrutinib in plasma
[2] = test system: spontaneous canine pemphigus foliaceus; conditions: cited from earlier work
healthy subjects [3] = experiment: Concentration-QTc; format: in vivo, human
[4] = test system: collagen-induced arthritis in rats; conditions: cited from earlier work
healthy subjects [5] = experiment: Safety assessment; format: in vivo, human; conditions: Part A
other CYP enzymes = conditions: enzymatic studies; cited from earlier work
[6] = Plasma pharmacokinetics, Part B; conditions: for AUC(0-inf): AUC0–∞
[7] = cited from earlier work
[8] = test system: mouse immune thrombocytopenia model; conditions: cited from earlier work
[9] = rilzabrutinib 100 mg + ritonavir 100 mg vs 100 mg alone
[10] = Part B, linear model with an intercept
[11] = rilzabrutinib 100 mg + ritonavir 100 mg
[12] = human, in vivo, 400 mg, Mean (SD), 400 mg single dose alone
[13] = human, in vivo, 400 mg, Median (range), 400 mg single dose alone

CC(C)(/C=C(\C#N)C(=O)N1CCC[C@@H](n2nc(-c3ccc(Oc4ccccc4)cc3F)c3c(N)ncnc32)C1)N1CCN(C2COC2)CC1 [Rilzabrutinib, rilzabrutinib]
Cmax ([1]; Mean (SD)): 223 ng/mL
Cmax ([1]; Median (range)): 157 ng/mL
Tmax ([1]; Mean (SD)): 2.3 h
Tmax ([1]; Median (range)): 2.5 h
half-life ([1]; t 1/2, Mean (SD)): 4 h
half-life ([1]; t 1/2, Median (range)): 4 h
increase in rilzabrutinib AUC0–∞ with ritonavir over rilzabrutinib alone [1, 9]: 17 fold
increase in rilzabrutinib Cmax with ritonavir over rilzabrutinib alone [1, 9]: 7 fold
Tmax, Median (range) ([1]; rilzabrutinib 100 mg single dose): 1.0 (0.5–2.0) h
Tmax, Median (range) ([1]; rilzabrutinib 1200 mg single dose): 3.0 (1.5–4.0) h
anti-inflammatory effects [2]: rapid and significant anti‐inflammatory effects
concentration–QTc relationship (slope) (healthy subjects [3]; Part B): -0.01 ms/ng/mL
predicted ΔΔQTcF at the observed geometric mean Cmax (healthy subjects [3]; Part B, 400 mg alone): -3.4 ms
estimated population slope of the C-QTc relationship (healthy subjects [3]; [10]): 0.01 ms per ng/mL
intercept of the C-QTc relationship (healthy subjects [3]; [10]): -2.0 ms
predicted ΔΔQTcF at the observed geometric mean Cmax (healthy subjects [3]; Part B, rilzabrutinib 400 mg with ritonavir): -9.9 ms
predicted ΔΔQTcF interval at Cmax (healthy subjects [3]; both therapeutic and supratherapeutic dose groups): < 0 ms
predicted upper bound 90% CI of QTc effect (healthy subjects [3]; therapeutic and supratherapeutic concentrations): < 10 ms
effect on disease [4]: dose‐dependent reduction and complete reversal of disease
serious TEAEs, deaths, or TEAEs leading to study drug interruption/discontinuation (healthy subjects [5]): no serious TEAEs, deaths, or TEAEs leading to study drug interruption/discontinuation
severity of rilzabrutinib-related TEAEs (healthy subjects [5]): mostly mild (grade 1)
participants with TEAEs deemed related to rilzabrutinib treatment (healthy subjects [5]; 100 mg plus ritonavir 100 mg, one event in one participant): 9.1%
participants with TEAEs deemed related to rilzabrutinib treatment (GI-related) (healthy subjects [5]; 1200 mg, five events in three participants): 75%
rilzabrutinib-related TEAEs (healthy subjects [5]; following 100 mg rilzabrutinib): no rilzabrutinib‐related TEAEs reported
Treatment-related TEAE: Diarrhea, n (%) (healthy subjects [5]; rilzabrutinib 100 mg): 0 n (%)
Treatment-related TEAE: Dizziness, n (%) (healthy subjects [5]; rilzabrutinib 100 mg): 0 n (%)
Treatment-related TEAE: Gastrointestinal disorders, n (%) (healthy subjects [5]; rilzabrutinib 100 mg): 0 n (%)
Treatment-related TEAE: Nausea, n (%) (healthy subjects [5]; rilzabrutinib 100 mg): 0 n (%)
Treatment-related TEAE: Nervous system disorders, n (%) (healthy subjects [5]; rilzabrutinib 100 mg): 1 (8.3) n (%)
Treatment-related TEAE: Orthostatic hypotension, n (%) (healthy subjects [5]; rilzabrutinib 100 mg): 0 n (%)
Treatment-related TEAE: Subjects with ≥1 TEAE, n (%) (healthy subjects [5]; rilzabrutinib 100 mg): 0 n (%)
Treatment-related TEAE: Vascular disorders, n (%) (healthy subjects [5]; rilzabrutinib 100 mg): 0 n (%)
Treatment-related TEAE: Vomiting, n (%) (healthy subjects [5]; rilzabrutinib 100 mg): 0 n (%)
Treatment-related TEAE: Diarrhea, n (%) (healthy subjects [5]; [11]): 0 n (%)
Treatment-related TEAE: Dizziness, n (%) (healthy subjects [5]; [11]): 1 (9.1) n (%)
Treatment-related TEAE: Gastrointestinal disorders, n (%) (healthy subjects [5]; [11]): 0 n (%)
Treatment-related TEAE: Nausea, n (%) (healthy subjects [5]; [11]): 0 n (%)
Treatment-related TEAE: Orthostatic hypotension, n (%) (healthy subjects [5]; [11]): 0 n (%)
Treatment-related TEAE: Subjects with ≥1 TEAE, n (%) (healthy subjects [5]; [11]): 1 (9.1) n (%)
Treatment-related TEAE: Vascular disorders, n (%) (healthy subjects [5]; [11]): 0 n (%)
Treatment-related TEAE: Vomiting, n (%) (healthy subjects [5]; [11]): 0 n (%)
Treatment-related TEAE: Diarrhea, n (%) (healthy subjects [5]; rilzabrutinib 1200 mg): 2 (50.0) n (%)
Treatment-related TEAE: Dizziness, n (%) (healthy subjects [5]; rilzabrutinib 1200 mg): 1 (25.0) n (%)
Treatment-related TEAE: Gastrointestinal disorders, n (%) (healthy subjects [5]; rilzabrutinib 1200 mg): 3 (75.0) n (%)
Treatment-related TEAE: Nausea, n (%) (healthy subjects [5]; rilzabrutinib 1200 mg): 2 (50.0) n (%)
Treatment-related TEAE: Nervous system disorders, n (%) (healthy subjects [5]; rilzabrutinib 1200 mg): 1 (25.0) n (%)
Treatment-related TEAE: Orthostatic hypotension, n (%) (healthy subjects [5]; rilzabrutinib 1200 mg): 1 (25.0) n (%)
Treatment-related TEAE: Subjects with ≥1 TEAE, n (%) (healthy subjects [5]; rilzabrutinib 1200 mg): 3 (75.0) n (%)
Treatment-related TEAE: Vascular disorders, n (%) (healthy subjects [5]; rilzabrutinib 1200 mg): 1 (25.0) n (%)
Treatment-related TEAE: Vomiting, n (%) (healthy subjects [5]; rilzabrutinib 1200 mg): 1 (25.0) n (%)
tolerability (healthy subjects [5]; single dose of 100 mg): well tolerated
interaction with other CYP enzymes (other CYP enzymes): no significant interaction
Tmax, Median (range) ([6]; 400 mg single dose alone): 2.1 (0.6–4.1) h
AUC(0-t) ([6]; human, in vivo, 400 mg, AUC0–last, Mean (SD), 400 mg single dose alone): 455 ng·h/mL
AUC(0-inf) [6, 12]: 454 ng·h/mL
AUC(0-inf) [6, 13]: 312 ng·h/mL
Cmax [6, 12]: 144 ng/mL
Cmax [6, 13]: 102 ng/mL
Tmax [6, 12]: 2.1 h
Tmax [6, 13]: ~2.1 h
half-life ([6]; human, in vivo, 400 mg, t 1/2, Mean (SD), 400 mg single dose alone): 3.9 h
half-life ([6]; human, in vivo, 400 mg, t 1/2, Median (range), 400 mg single dose alone): 3.1 h
increase in rilzabrutinib Cmax with ritonavir ([6]; rilzabrutinib 400 mg + ritonavir 100 mg BID vs 400 mg alone): 5 fold
accumulation after chronic multiple dosing ([7]; 400 mg b.i.d.): minimal accumulation
delay of absorption by a moderate fat meal ([7]; healthy volunteers): ~ 1 h
median time to maximum plasma concentration [Tmax] ([7]; single dose 50–1200 mg, healthy volunteers): 0.5 to 2.5 h
mean half-life (t 1/2) ([7]; single dose, healthy volunteers): 1.4 to 3.9 h
anti-inflammatory effects [8]: rapid and significant anti‐inflammatory effects
